Assay results reported in patent US5283243A, “Piperidinoalkylbenzoxazine and piperidinoalkylbenzothiazine compounds, and medicaments containing them” (Kali-Chemie Pharma GmbH, priority 1990, dated 1994).
Where two headings read alike, the source gives them in different places.

Experiments:
[1] = test system: PAF-induced aggregation of rabbit blood platelets; assay: Anti-PAF activity in vitro, inhibition of PAF-induced platelet aggregation; assay type: cell-based, rabbit (New Zealand hybrids); settings: test substance concentration of 10^-5 mole/l, pH 7.4
Description: 4. Determination of Anti-PAF Activity In Vitro
PAF (=Platelet Activating Factor) is a phospholipid mediator which has many effects. Activation of platelet aggregation induces protracted broncho-contraction and hyper-reactivity of the air paths.
In this test the effect of the test substances on platelet aggregation induced by adding PAF to a suspension of platelets obtained from rabbit blood is investigated using the method described by Mikashima et al. (Jap. J. Pharmacol. 44 (1987) 387-391).
A suspension of platelets obtained from rabbit blood containing 4×10^9 platelets/ml in a modified Tyrode buffer solution (=Tyrode solution with 1.3 mM/1 CaCl2 and 2.5 g/l gelatine added) adjusted to pH 7.4 was used. Tyrode solution is an aqueous solution containing 136.9 mmoles NaCl, 2.68 mmoles KCl, 2.31 mmoles CaCl2, 1.0 mmole MgCl2, 11.9 mmoles NaHCO3, 1.45 mmoles NaH2 PO4 and 5.55 mmoles glucose per liter. The platelets were obtained from 10 ml blood samples from each of three rabbits (New Zealand hybrids, body weight 3-4 kg). For this the blood samples were treated with ethylenediamine tetraacetic acid and washed according to the method of Artley et al. (Brit. J. Hematol. 19 (1970), 7-17). […]
To carry out the test 50 μl of the platelet suspension and 10 μl of a 40×10^-5 molar solution of the compound being investigated were added with stirring (1,000 rpm) to 330 μl of the modified Tyrode buffer solution in an aggregation tube provided with a small magnetic stirrer. […] The aggregation occurring in the aggregation tubes was measured over 4-5 minutes with the aid of a computerized aggregometer.
The aggregation which occurred in test tubes containing only platelet suspension was evaluated as 0%, whereas the aggregation which occurred in test tubes containing platelet suspension and PAF preparation was evaluated as 100%. The aggregation which still occurred during the inhibition of the PAF induced platelet aggregation due to the addition of the test substances was measured, and the resulting aggregation inhibition was calculated therefrom in %.

[2] = test system: cyclooxygenase (6-keto-PGF1α release); assay: Cyclooxygenase inhibition: 6-keto-PGF1α release from zymosan-stimulated mouse peritoneal macrophage cells; assay type: cell-based; settings: Peritoneal macrophage cell, read-out: In vitro % inhibition upon release of 6-keto-PGF1α
Description: (§1) 5. In vitro Determination of Cyclooxygenase Inhibition and 5-Lipoxygenase Inhibition
(§2) After a cell is activated, arachidonic acid contained in cell membranes is metabolized in two ways. Leucotrienes, inter alia leucotriene C4, are formed due to the action of the enzyme 5-lipoxyqenase (=5-LO), and prostanoids are formed due to the action of the enzyme cyclooxygenase (=CO). In in vitro systems these metabolites are secreted from the cell.
(§3) To evaluate the cyclooxygenase-inhibiting and 5-lipoxygenase-inhibiting properties of the test substances, their inhibitory activity on the biosynthesis of the arachidonic acid derivatives leucotriene C4 (=LTC4) and 6-keto-prostaglandin F1α (=6-keto-PGF1 α) was determined in vitro on mouse peritoneal macrophage cells. For this purpose the LTC4 and 6-keto-PGF1 α contents of a mouse peritoneal macrophage cell culture medium were determined by zymosan stimulation as described by Scott et al. (J. Exp. Med. 152 (1980), 324-335) and by Fradin et al., (Prostaglandins, 33 (1987), 579-589).
(§4) A cell suspension containing peritoneal cells from male mice 8-10 weeks old was obtained in a known manner. A solution marketed under the designation RPMI 1640 (Manufactured by Gibco) was used as the cell culture medium, to which heparin (10 international units/ml) and antibiotics were added according to the procedure of Bonney et al. (Biochem. J. 176 (1978) 422-433). The cell suspension was adjusted to a cell concentration of 10^6 cells per ml and distributed uniformly on titer dishes containing 24 1-ml titer cells (wells). These were kept for two hours in a humidified incubator filled with air enriched with 7% CO2. Cells not adhering to the titer well walls were then removed by washing. The remaining macrophage cells adhering to the walls were incubated for about 12 hours in a suspension medium to which 0.1% of bovine serum albumin (BSA=Bovine Serum Albumin) was added. The suspension medium was then replaced by a Hanks salt solution (=Hanks Balanced Salt Solution=HBSS) with 10 mmoles of Hepes (=hydroxyethylpiperazinoethanesulfonic acid) to which a 0.1% strength solution of the test substances in aqueous, 1% strength dimethylformamide or only the solvent had been added. After 15 minutes the arachidonic acid metabolism was stimulated by adding […] of zymosan (=glycoprotein mixture isolated from cell walls of beer yeast, Saccharomyces cerevisiae, Manufactured by Sigma Chemical Co., Munich) per titre cell. After 2 hours samples of the respective supernatant liquid in each cell were examined for their 6-keto-PGF1α and LTC4 contents by an enzyme immunoassay (=EIA). This EIA is carried out following the method of Pradelles et al. (Analytical Chem. 57 (1985), 1170-1173). The determination of LTC4 and the determination of 6-keto-PGF1α were each carried out on suitable dilutions of the samples (1:50 to 1:250 for the LTC4 determination and 1:250 to 1:1,250 for the 6-keto-PGF1α determination) in comparison with a comparative scale. To determine the inhibiting effect of a 10^-5 molar concentration of the compounds, the amounts of reference eicosanoid were determined, and the inhibiting effect was calculated therefrom in % inhibition compared to the measurements of the zymosan controls.

[3] = test system: 5-lipoxygenase (LTC4 release); assay: 5-Lipoxygenase inhibition: LTC4 release from zymosan-stimulated mouse peritoneal macrophage cells; assay type: cell-based; settings: Peritoneal macrophage cell, read-out: In vitro % inhibition upon release of LTC4
Description: as §1, §2, §3, §4

[4] = test system: mice; assay: Determination of minimum toxic dose; assay type: in vivo; settings: mouse, per os; lowest dose producing death or severe toxic symptoms, maximum dose 300 mg/kg, 24 hours
Description: 2. Determination of Minimum Toxic Dose
Maximum doses of 300 mg/kg of the test substance were administered orally to male mice weighing 20-25 g. The animals were observed carefully for 3 hours for toxicity symptoms. In addition, all symptoms and deaths were recorded over a period of 24 hours after administration. Associated symptoms were also observed and recorded. If death or severe toxic symptoms were observed, additional mice were administered increasingly lower doses. The lowest dose which produced death or severe toxic symptoms is given in the following Table B as the minimum toxic dose.

[5] = zymosan-stimulated mouse peritoneal macrophage cells, 10^-5 mole/l

Structure (SMILES) | % inhibition of the PAF-induced aggregation of rabbit blood platelets [1] [%] | inhibition at 10 µM ([2]; Mus musculus) [%] | inhibition at 10 µM ([3]; Mus musculus) [%] | inhibition at 10 µM [2, 5] [%] | inhibition at 10 µM [3, 5] [%] | Minimum toxic dose [4] [mg/kg]
N#CC1(c2ccccc2)CCN(CCCC2Oc3ccc(Cl)cc3NC2=O)CC1 (stereo not shown) [Example 14] | 57 | 25 | 10 | – | – | –
Cc1cc2c(cc1C)SC(CCCCN1CC=C(c3ccccc3)CC1)C(=O)N2 (stereo not shown) [Example 19] | 72 | – | – | 16 | 57 | –
O=C1Nc2ccccc2SC1CCCN1CCC(Cc2ccccc2)CC1 (stereo not shown) [Example 21] | 33 | – | – | 11 | 24 | 100
